Measured values from PubChem BioAssay (NCI).
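Exposure lasted 48 hours, with cells grown in 96-well plates and compounds tested at five concentrations. GI50 = concentration required for 50% inhibition of growth. TGI denotes the concentration required for complete inhibition of growth.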

How the values were obtained:
Assay in all cases: NCI tumour cell line growth inhibition, 48 h
[1] = tested on: A549 NSCLC
[2] = tested on: ACHN renal
[3] = tested on: DU-145 prostate
[4] = tested on: MCF7 breast
[5] = tested on: SF-268 CNS
[6] = tested on: SK-MEL-5 melanoma
[7] = tested on: SR leukemia
[8] = tested on: UACC-257 melanoma
[9] = tested on: CAKI-1 renal
[10] = tested on: NCI-H226 lung

Compound | TGI [1] | TGI [2] | TGI [3] | TGI [4] | TGI [5] | TGI [6] | TGI [7] | TGI [8] | TGI [9] | TGI [10] | GI50 [1] | GI50 [2] | GI50 [9] | GI50 [3] | GI50 [4] | GI50 [10] | GI50 [5] | GI50 [6] | GI50 [7] | GI50 [8]
C=C1CC2(C)CCC(OC(=O)C3(C)OC3C)C(C)(OC(C)=O)C2CC1=C(C)C (centres undefined) | > 100 µM | > 100 µM | > 100 µM | > 100 µM | > 100 µM | > 100 µM | > 100 µM | > 100 µM | – | – | – | – | – | – | – | – | – | – | – | –
COc1ccc2c(c1)C(=O)/C(=C/c1ccccc1)C2 | – | – | > 100 µM | > 100 µM | – | > 100 µM | > 100 µM | – | 60.1 µM | > 100 µM | – | – | – | – | – | – | – | – | – | –
COc1cc(CN(C)N2C(=O)c3cccc4cc([N+](=O)[O-])cc(c34)C2=O)cc(OC)c1OC | – | – | > 100 µM | > 100 µM | – | > 100 µM | > 100 µM | – | > 100 µM | > 100 µM | – | – | – | – | – | – | – | – | – | –
O=c1n(Cc2ccccc2)c2ccccc2n1CC1CS1 (centres undefined) | > 100 µM | > 100 µM | – | – | > 100 µM | – | > 100 µM | – | > 100 µM | > 100 µM | – | – | – | – | – | – | – | – | – | –
CCNc1nc2c(=O)n(C)c(=O)n(C)c2s1 | > 100 µM | > 100 µM | – | – | > 100 µM | – | – | > 100 µM | – | > 100 µM | – | – | – | – | – | – | – | – | – | –
CC12CCC3C(CCC4(O)C=CCCC34C=O)C1(O)CC(O)C2c1ccc(=O)oc1 (centres undefined) | 0.0646 µM | – | – | 0.344 µM | 0.0754 µM | 0.0887 µM | – | 0.478 µM | 0.0894 µM | 0.369 µM | – | – | – | – | – | – | – | – | – | –
Cc1cc(C)c(S(=O)(=O)N(CCCCCCN)OCCCON(CCCCCCN)S(=O)(=O)c2c(C)cc(C)cc2C)c(C)c1 | 3.24 µM | 13.1 µM | 2.76 µM | 3.66 µM | 3.42 µM | – | – | 3.27 µM | 3.7 µM | – | – | – | – | – | – | – | – | – | – | –
CCOC(=O)c1csc(NC(=O)CCN2CCOCC2)n1 | > 100 µM | > 100 µM | > 100 µM | > 100 µM | – | > 100 µM | > 100 µM | > 100 µM | > 100 µM | – | – | – | – | – | – | – | – | – | – | –
O=C(NC/C=C/CO)c1ccccc1 | > 100 µM | – | – | > 100 µM | > 100 µM | > 100 µM | – | > 100 µM | – | > 100 µM | – | – | – | – | – | – | – | – | – | –
COc1ccc(-c2nnc3c4ccccc4sn23)cc1 | > 100 µM | > 100 µM | – | – | > 100 µM | > 100 µM | > 100 µM | 73.8 µM | – | – | – | – | – | – | – | – | – | – | – | –
Fc1cc(C2=Nn3c(nnc3-c3cc(F)c(Cl)cc3Cl)SC2)c(Cl)cc1Cl | 83.5 µM | 90.9 µM | > 100 µM | > 100 µM | 61.3 µM | 30.3 µM | > 100 µM | > 100 µM | 60.7 µM | 36 µM | 23.7 µM | 26.6 µM | 20.6 µM | 36.6 µM | 16.8 µM | 14.9 µM | 18.5 µM | 13.4 µM | 25.4 µM | 30.2 µM
O=C1CNC(=O)N1 | > 1120 µM | – | – | > 1120 µM | > 1120 µM | > 1120 µM | – | > 1120 µM | > 1120 µM | > 1120 µM | – | – | – | – | – | – | – | – | – | –
CC1(C)CCCC2(C)[C@@H]1CC[C@]13C[C@](C)(CC[C@@H]21)[C@@H]3CO (some centres undefined) | > 100 µM | > 100 µM | – | – | > 100 µM | > 100 µM | – | > 100 µM | > 100 µM | > 100 µM | – | – | – | – | – | – | – | – | – | –
